In ChEMBL document CHEMBL5154842, “Unique Carbazole-Oxadiazole Derivatives as New Potential Antibiotics for Combating Gram-Positive and -Negative Bacteria” (J Med Chem, 2022):
Values after ≈ are worked out from the molar mass of the structure shown.

Tests used:
Format in all cases: functional
[1] = test system: Pseudomonas aeruginosa; experiment: Antibacterial activity against Pseudomonas aeruginosa ATCC 27853 assessed as inhibition of bacterial growth incubated for 24 hrs by CLSI protocol based two fold serial dilution method
[2] = test system: Pseudomonas aeruginosa; experiment: Antibacterial activity against Pseudomonas aeruginosa assessed as inhibition of bacterial growth incubated for 24 hrs by CLSI protocol based two fold serial dilution method
[3] = test system: Enterococcus faecalis; experiment: Antibacterial activity against Enterococcus faecalis assessed as inhibition of bacterial growth incubated for 24 hrs by CLSI protocol based two fold serial dilution method
[4] = test system: Acinetobacter baumannii; experiment: Antibacterial activity against Acinetobacter baumannii assessed as inhibition of bacterial growth incubated for 24 hrs by CLSI protocol based two fold serial dilution method
[5] = test system: Escherichia coli; experiment: Antibacterial activity against Escherichia coli assessed as inhibition of bacterial growth incubated for 24 hrs by CLSI protocol based two fold serial dilution method
[6] = test system: Staphylococcus aureus; experiment: Antibacterial activity against methicillin-resistant Staphylococcus aureus N315 assessed as inhibition of bacterial growth incubated for 24 hrs by CLSI protocol based two fold serial dilution method
[7] = test system: Klebsiella pneumoniae; experiment: Antibacterial activity against Klebsiella pneumonia assessed as inhibition of bacterial growth incubated for 24 hrs by CLSI protocol based two fold serial dilution method
[8] = test system: Staphylococcus aureus; experiment: Antibacterial activity against Staphylococcus aureus assessed as inhibition of bacterial growth incubated for 24 hrs by CLSI protocol based two fold serial dilution method
[9] = test system: Staphylococcus aureus; experiment: Antibacterial activity against Staphylococcus aureus 25923 assessed as inhibition of bacterial growth incubated for 24 hrs by CLSI protocol based two fold serial dilution method
[10] = test system: Escherichia coli; experiment: Antibacterial activity against Escherichia coli 25922 assessed as inhibition of bacterial growth incubated for 24 hrs by CLSI protocol based two fold serial dilution method
[11] = test system: Staphylococcus aureus; experiment: Antibacterial activity against Staphylococcus aureus 29213 assessed as inhibition of bacterial growth incubated for 24 hrs by CLSI protocol based two fold serial dilution method

Row | SMILES | MIC [1] [µg/mL] | MIC [2] [µg/mL] | MIC [3] [µg/mL] | MIC [4] [µg/mL] | MIC [5] [µg/mL] | MIC [6] [µg/mL] | MIC [7] [µg/mL] | MIC [8] [µg/mL] | MIC [9] [µg/mL] | MIC [10] [µg/mL] | MIC [11] [µg/mL]
1 | Fc1ccccc1COc1cccc2c1c1ccccc1n2Cc1nnc(S)o1 | 0.25 (≈ 0.617 µM) | 256 (≈ 631 µM) | 256 (≈ 631 µM) | 64 (≈ 158 µM) | 128 (≈ 316 µM) | 16 (≈ 39.5 µM) | 32 (≈ 78.9 µM) | 256 (≈ 631 µM) | 256 (≈ 631 µM) | 16 (≈ 39.5 µM) | 64 (≈ 158 µM)
2 | Fc1cccc(COc2cccc3c2c2ccccc2n3Cc2nnc(S)o2)c1 | 0.5 (≈ 1.23 µM) | 256 (≈ 631 µM) | 32 (≈ 78.9 µM) | 64 (≈ 158 µM) | 128 (≈ 316 µM) | 64 (≈ 158 µM) | 32 (≈ 78.9 µM) | 128 (≈ 316 µM) | 32 (≈ 78.9 µM) | 16 (≈ 39.5 µM) | 128 (≈ 316 µM)
3 | CCn1c2ccccc2c2nnc(SCc3nnc(S)o3)nc21 | 256 (≈ 743 µM) | 256 (≈ 743 µM) | 256 (≈ 743 µM) | 256 (≈ 743 µM) | 256 (≈ 743 µM) | 256 (≈ 743 µM) | 256 (≈ 743 µM) | 256 (≈ 743 µM) | 256 (≈ 743 µM) | 256 (≈ 743 µM) | 256 (≈ 743 µM)
4 | CCCCCCOc1cccc2c1c1ccccc1n2Cc1nnc(S)o1 | 256 (≈ 671 µM) | 256 (≈ 671 µM) | 256 (≈ 671 µM) | 256 (≈ 671 µM) | 8 (≈ 21 µM) | 256 (≈ 671 µM) | 256 (≈ 671 µM) | 256 (≈ 671 µM) | 256 (≈ 671 µM) | 4 (≈ 10.5 µM) | 1 (≈ 2.62 µM)
5 | CCCCCCCCCCCCOc1cccc2c1c1ccccc1n2Cc1nnc(S)o1 | 256 (≈ 550 µM) | 256 (≈ 550 µM) | 256 (≈ 550 µM) | 256 (≈ 550 µM) | 256 (≈ 550 µM) | 256 (≈ 550 µM) | 256 (≈ 550 µM) | 256 (≈ 550 µM) | 256 (≈ 550 µM) | 256 (≈ 550 µM) | 128 (≈ 275 µM)
6 | CCn1cc(C(=O)O)c(=O)c2cc(F)c(N3CCNCC3)cc21 [NORFLOXACIN] | 128 (≈ 401 µM) | 8 (≈ 25.1 µM) | 2 (≈ 6.26 µM) | 128 (≈ 401 µM) | 0.25 (≈ 0.783 µM) | 0.5 (≈ 1.57 µM) | 4 (≈ 12.5 µM) | 2 (≈ 6.26 µM) | 1 (≈ 3.13 µM) | 2 (≈ 6.26 µM) | 4 (≈ 12.5 µM)
7 | Fc1ccc(COc2cccc3c2c2ccccc2n3Cc2nnc(S)o2)c(F)c1 | 0.25 (≈ 0.59 µM) | 256 (≈ 605 µM) | 64 (≈ 151 µM) | 64 (≈ 151 µM) | 128 (≈ 302 µM) | 32 (≈ 75.6 µM) | 32 (≈ 75.6 µM) | 128 (≈ 302 µM) | 64 (≈ 151 µM) | 16 (≈ 37.8 µM) | 64 (≈ 151 µM)
